Assay results taken from ChEMBL document CHEMBL5727426, “Tetrahydroisoquinoline derived PRMT5-inhibitors” (2019).
pIC50: −log10 of the molar value.

Assay: Revised Biochemical Assay: Compounds of the invention may be tested for in vitro activity in the following assay: A histone H4 derived peptide is used as substrate (amino acid sequence: […]N H2). Full-length PRMT5 enzyme (NCBI Reference sequence NP_006100.2) was co-expressed with His6-MEP50 in insect cells and purified via Nickel immobilized metal affinity and gel filtration chromatography (the enzyme).The 6 μL reactions are run in Greiner brand black 384-well low volume assay plates. All reactions contained assay buffer (phosphate buffered saline, 0.01% (v/v) Tween-20, 0.01% (w/v) albumin from chicken egg white, 1 mM Dithiothreitol, 1 μM peptide substrate, 1 μM S-Adenosyl methionine, and 15 ng/reaction enzyme, with the enzyme being omitted from negative control reactions. Compounds were added in a volume of 100 nL from dilution series prepared in DMSO, positive and negative control reactions receiving the same volume DMSO without compound. The plates were sealed with adhesive seals and incubated for 4 hours at 37 degree Celsius. Reaction progress was measured using the Transcreener EPIGEN methyltransferase assay (BellBrook Labs, Madison, Wis.) as recommended by the manufacturer. To each reaction 2 μL detection mix were added, containing coupling enzymes, fluorescence polarisation tracer, and AMP antibody. Plates were incubated for 90 minutes before being read on a PerkinElmer EnVision plate reader in fluorescence polarisation mode.

Compound | pIC50
COC(=O)N1[C@@H]2CC[C@H]1CC(Oc1cc(C(=O)NC[C@@H](O)[C@@H]3Cc4ccccc4CN3)ccn1)C2 (stereo partly drawn) | 7.42
Cc1ccc(C(=O)NC[C@@H](O)[C@@H]2Cc3ccccc3CN2)cn1 | 5.33
O=C(NC[C@@H](O)[C@@H]1Cc2ccccc2CN1)c1ccc2[nH]ncc2c1 | 5.56
